# Results taken from patent US4075332A (priority 1976, dated 1978).
# Read-outs that look alike come from different tables or passages of the source.
# Assays:
# Root-knot nematode = conditions: in vivo
# warm blooded animals = test: Toxicity towards warm blooded animals (in words); format: in vivo; conditions: summary statements
# Protocol: Each compound tested was administered orally by stomach tube to five to eight groups of five male albino rate of the Sprague Dawley strain, weighing 220 to 300 grams at various dosage levels. Following incubation, the animals were closely observed for mortality and toxic effects at intervals for 14 days. Statistical analysis of the mortality data was carried out to determine the median lethal dosages (LD50) according to the method of W. R. Thompson as described in the Journal Bact. Rev. in Vol. 11, pages 115-145 in 1947, utilizng the tables of H. J. Horn published in the Journal Biometrics, Vol. 12, page 311 in 1956. The LD50 dosages are expressed in mg weights of test material per kg weight of rat used.
# Southern army worm = conditions: in vivo
# in vivo = conditions: rat, po
# Mexican bean beetle [1] = test: whole plant or invertebrate; conditions: Epilachna varivestis
# Spider mites [2] = test: whole plant or invertebrate; conditions: Tetranychus urticae; for mortality at 10 ppm: read-out: Spider Mites Mortality,%
# Bean aphids [3] = test: whole plant or invertebrate; conditions: Aphis fabae, 48 h
# Corn rootworm larvae = test: whole plant or invertebrate; conditions: soil, 120 h
# Spider mites [4] = test: Mite, Systemic; format: in vivo, two-spotted mite; conditions: Tetranychus urticae, read-out: Mortality Produced, % - Spider Mites Systemic
# Method in brief: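 Compound was dissolved in acetone and dispersed in water with Triton X-100 as an emulsion. 20 ml was applied as a soil drench to bean plants infested with two-spotted mites.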
# Bean aphids [5] = test: Aphid, Systemic; format: in vivo, bean aphid; conditions: Aphis fabae, 48 h, read-out: Mortality Produced, % - Bean Aphids Systemic
# Method in brief: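 Nasturtium plants infested with bean aphids received the compound as a soil drench, formulated as an acetone/water emulsion with Triton X-100. Aphid control was rated 2 days after treatment.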
# Corn earworm = test: Field control of corn earworm on corn (Example 28); format: in vivo
# Source text: (§1) Corn plots were planted on March 22. Each treatment was made on a 50 ft. row flanked by guard rows. Treatments were replicated 4 times and the average rating is reported. Except for insecticide treatment, the plots were managed in accordance with recommended farming practice for the area.
# Corn earworm applications were made during silking on May 29, June 1, 2, 3, 4, 5, 8, 9, 10, 11 and 12. Readings were made on June 15.
# Fall armyworm = test: Field control of fall armyworm on sweet corn (Example 28); format: in vivo
# Protocol: as §1
# Fall armyworm plots on sweet corn were treated on May 13, 20 and 27. Readings were made on May 29.
# Cabbage looper [6] = test: Field control of cabbage looper on cabbage (Example 28); format: in vivo; conditions: Table XVI; 1.5 lbs/acre; nil 5.9; higher ratings indicate more damage
# Source text: (§2) King Cole cabbage and Vates Collards were transplanted on Feb. 1. Cabbage treatments were made on 50 ft. rows and replicated 4 times. Collard treatments were made on 25 ft. rows and replicated 4 times. Collard and cabbage rows were placed side-by-side and were flanked by guard rows. Except for insecticide treatment, the plots were managed in accordance with recommended farming practice for the area. Chemicals were applied on April 3, 10, 17, 24, May 1, 8, 15, 22 and 29, and readings were made on June 1.
# Cabbage looper [7] = test: Field control of cabbage looper on collards (Example 28); format: in vivo; conditions: Table XVI; 1.5 lbs/acre; nil 5.3; higher ratings indicate more damage
# Source text: as §2
# Mexican bean beetle [8] = conditions: in vivo
# Spider mites [9] = conditions: two-spotted spider mite, in vivo, 48 h
# House fly [10] = conditions: in vivo, 48 h
# House fly [11] = test: whole plant or invertebrate; conditions: Musca domestica, 48 h
# [12] = read-out: Mexican Bean Beetles Mortality,%
# [13] = read-out: Bean Aphids Mortality,%
# [14] = read-out: Corn Rootworm Mortality,%
# [15] = read-out: Mortality Produced, % - Mex.Bean Beetle
# [16] = 48 h, read-out: Mortality Produced, % - Spider Mites Contact
# [17] = read-out: Mortality Produced, % -
# [18] = read-out: Mortality Produced, % - Bean Aphids Contact
# [19] = read-out: Mortality Produced, % - House Flies
smiles,measurement,setting,value
"CCCSC(C)CSP(=O)(OCC)SCCC (stereo not shown) [Example 34, O-Ethyl S-1-Propyl S'-2-n-Propylthiopropyl Dithiophosphate]","Nematode Control,%",Root-knot nematode,100%
same,toxicity (in words),warm blooded animals,particularly low toxicity
same,"S.Armyworm Mortality,%",Southern army worm,100%
same,LD50 at 336 h,in vivo,422 mg/kg
same,mortality at 50 ppm,Mexican bean beetle [1]; [12],100%
same,mortality at 10 ppm,Spider mites [2],100%
same,mortality at 50 ppm,Bean aphids [3]; [13],100%
same,mortality at 2.5 ppm,Corn rootworm larvae; [14],100%
"CCCSP(=O)(OCC)SCC(C)SC (stereo not shown) [Example 32, O-Ethyl S-1-Propyl S'-2-Methylthiopropyl dithiophosphate]",mortality at 50 ppm,Spider mites [4],100%
same,mortality at 250 ppm,Spider mites [4],100%
same,mortality at 50 ppm,Bean aphids [5],0%
same,mortality at 250 ppm,Bean aphids [5],100%
same,"Nematode Control,%",Root-knot nematode,100%
same,Nematodes Control % at 25 lb/acre,Root-knot nematode,100%
same,control of corn earworms (in words),Corn earworm; 0.5 lbs per acre,excellent control
same,"Corn Earworm, % Clean Ears","Corn earworm; Table XVI, 0.5 lbs/acre, nil 36",94%
same,"Fall Armyworm Injury Free Stalks of Sweet Corn, %","Fall armyworm; Table XVI, 0.75 lbs/acre, nil 67",91%
same,control of fall armyworm (in words),"Fall armyworm; sweet corn, 0.75 lbs. per acre",well controlled
same,Cabbage Looper Harvest Rating - Cabbage,Cabbage looper [6],3.8
same,Cabbage Looper Harvest Rating - Collards,Cabbage looper [7],2.0
same,"S.Armyworm Mortality,%",Southern army worm,100%
same,"Mortality Produced at 50 ppm, % - Southern Army Worm",Southern army worm; southern armyworm,100%
same,"Mortality Produced, % - S.Army Worm",Southern army worm; southern armyworm,100%
same,"Mortality Produced, % - Mex.Bean Beetle",Mexican bean beetle [8],100%
same,"Mortality Produced, % - Spider Mites Contact",Spider mites [9],100%
same,"Mortality Produced, % - House Flies",House fly [10],100%
same,LD50 at 336 h,in vivo,109 mg/kg
same,mortality at 50 ppm,Mexican bean beetle [1]; [12],100%
same,mortality at 50 ppm,"Mexican bean beetle [1]; read-out: Mortality Produced at 50 ppm, % - Mexican Bean Beetles",100%
same,mortality at 50 ppm,Mexican bean beetle [1]; [15],100%
same,mortality at 250 ppm,Mexican bean beetle [1]; [15],100%
same,mortality at 50 ppm,Spider mites [2]; [16],100%
same,mortality at 250 ppm,Spider mites [2]; [16],100%
same,mortality at 50 ppm,"Spider mites [2]; read-out: Mortality Produced at 50 ppm, % - Spider Mites",100%
same,mortality at 10 ppm,Spider mites [2],100%
same,mortality at 50 ppm,Bean aphids [3]; [13],100%
same,mortality at 50 ppm,"Bean aphids [3]; read-out: Mortality Produced at 50 ppm, % - Bean Aphids",100%
same,mortality at 50 ppm,Bean aphids [3]; [17],100%
same,mortality at 250 ppm,Bean aphids [3]; [17],100%
same,mortality at 50 ppm,Bean aphids [3]; [18],100%
same,mortality at 250 ppm,Bean aphids [3]; [18],100%
same,mortality at 50 ppm,"House fly [11]; read-out: Mortality Produced at 50 ppm, % - Houseflies",100%
same,mortality at 50 ppm,House fly [11]; [19],100%
same,mortality at 250 ppm,House fly [11]; [19],100%
same,mortality at 2.5 ppm,"Corn rootworm larvae; read-out: Corn Rootworm Mortality, % at 2.5 ppm",100%
same,mortality at 2.5 ppm,Corn rootworm larvae; [14],100%
